Seven compounds from ChEMBL document CHEMBL5038679, “Fluoroalkylation of Dextromethorphan Improves CNS Exposure and Metabolic Stability” (ACS Med Chem Lett, 2022) can be followed below.

Converted amounts (≈) assume the structure as drawn.

The nature of series [1]: in vitro. The settings on record: human, liver microsomes.
Series [2] can be described thus: Aqueous solubility of compound in universal buffer at pH 7.4 at 100 uM incubated for 1.5 hrs under shaking condition by LC-MS/MS analysis. The class given is physicochemical.
Series [3] is described as follows: Stability in human liver microsomes assessed as half life at 10 uM measured upto 120 mins by LC-MS/MS analysis. The class given is ADME, Microsome. For orientation: Liver microsomes are vesicles of endoplasmic reticulum, rich in cytochrome P450 enzymes.
Series [4] is described as follows: Aqueous solubility of compound in universal buffer at pH 3 at 100 uM incubated for 1.5 hrs under shaking condition by LC-MS/MS analysis. The class given is physicochemical.
For series [5], the target named is Sigma intracellular receptor 2 (Homo sapiens, UniProt Q5BJF2). Briefly: Displacement of […] from sigma-2 receptor (unknown origin) expressed in HEK cell membrane incubated for 2 hrs by liquid scintillation counter analysis.
The target in series [6] is Glutamate [NMDA] receptor. Kind of series: Displacement of […] from NMDA receptor (unknown origin) expressed in HEK cell membrane incubated for 2 hrs by liquid scintillation counter analysis. Background: Displacement assays read how much labelled ligand stays bound in the presence of the test substance.
Series [7] concerns the target Sigma non-opioid intracellular receptor 1 (Homo sapiens, UniProt Q99720). Briefly: Displacement of […] from sigma-1 receptor (unknown origin) expressed in HEK cell membrane incubated for 2 hrs by liquid scintillation counter analysis.
The target in series [8] is T1, Sodium-dependent noradrenaline transporter (Homo sapiens, UniProt P23975). Kind of series: Displacement of […] from NET (unknown origin) expressed in HEK cell membrane incubated for 2 hrs by liquid scintillation counter analysis.
In series [9] the target is T2, Sodium-dependent serotonin transporter (Homo sapiens, UniProt P31645). Kind of series: biochemical. The class given is cell-based, HEK.
Description: Displacement of [3H]-Citalopram from SERT receptor (unknown origin) expressed in HEK cell membrane incubated for 2 hrs by liquid scintillation counter analysis
Series [10] can be described thus: in vitro. Particulars: dog, MDCK-MDR1.
Description: Apparent permeability in dog MDCK-MDR1 cells from basal to apical side measured after 30 to 120 mins by LC-MS analysis
Series [11] in a line: Clearance in Sprague-Dawley rat plasma at 2.5 mg/kg, po measured after 24 hrs by LC-MS/MS analysis. The class given is ADME, organism-based.
A short description of series [12]: Efflux ratio of apparent permeability across basolateral to apical side over apical to basolateral side in dog MDCK-MDR1 cells measured after 30 to 120 mins by LC-MS analysis. The settings on record: time 30-120 min. The class given is ADME, cell-based, Canis lupus familiaris.
Series [13] concerns the target T1, Sodium-dependent noradrenaline transporter. Briefly: Inhibition of human NET expressed in human HEK293 cells assessed as inhibition of substrate transport measured after 1 hr by flourescence based plate reader assay. The class given is cell-based.
The next series addresses hERG (KCNH2) (Homo sapiens, UniProt Q12809). Kind of series: Inhibition of human ERG at 10 uM measured after 15 mins by plate reader method relative to control. Format: toxicity.
The nature of series [14]: Volume of distribution in Sprague-Dawley rat at 2.5 mg/kg, po measured after 24 hrs by LC-MS/MS analysis. The class given is ADME, organism-based. The settings on record: in vivo.
A short description of series [15]: Cmax in Sprague-Dawley rat plasma at 2.5 mg/kg, po measured after 24 hrs by LC-MS/MS analysis. Format: ADME, organism-based. On the set-up: route oral, dose 2.5 mg/kg, time 24 hrs.
Series [16] can be described thus: Cmax in Sprague-Dawley rat brain at 2.5 mg/kg, po measured after 24 hrs by LC-MS/MS analysis. Further details: route oral, time 24 hrs, dose 2.5 mg/kg. The class given is ADME, organism-based.
Series [17] in a line: Half life in Sprague-Dawley rat brain at 2.5 mg/kg, po measured after 24 hrs by LC-MS/MS analysis. Format: ADME, organism-based.
Series [18] can be described thus: Unbound brain-to-plasma concentration ratio in Sprague-Dawley rat. The class given is ADME, cell-free. Particulars: read-out: K(p,uu,brain).
Series [19] in a line: in vitro. Particulars: dog, MDCK-MDR1. The source holds these as a separate data set.
Description: Apparent permeability in dog MDCK-MDR1 cells from apical to basal side measured after 30 to 120 mins by LC-MS analysis
Series [20] in a line: AUC in Sprague-Dawley rat brain at 2.5 mg/kg, po measured after 24 hrs by LC-MS/MS analysis. The class given is ADME, organism-based. Further details: route oral, time 24 hrs, dose 2.5 mg/kg.
Series [21] deals with T2, Sodium-dependent serotonin transporter. Format: cell-based, HEK293.
Series [22] in a line: AUC in Sprague-Dawley rat plasma at 2.5 mg/kg, po measured after 24 hrs by LC-MS/MS analysis. On the set-up: route oral, time 24 hrs, dose 2.5 mg/kg. The class given is ADME, organism-based.
Series [23] in a line: Half life in Sprague-Dawley rat plasma at 2.5 mg/kg, po measured after 24 hrs by LC-MS/MS analysis. The class given is ADME, organism-based.
Series [24] in a line: Protein binding in Sprague-Dawley rat plasma assessed as unbound fraction at 20 uM by NMR analysis. The class given is ADME, cell-free.
Series [25] can be described thus: Protein binding in Sprague-Dawley rat brain plasma assessed as unbound fraction at 5 uM measured after 4 hrs by LC-MS analysis. The class given is ADME, tissue-based.

T1 sequence (P23975 whole entry): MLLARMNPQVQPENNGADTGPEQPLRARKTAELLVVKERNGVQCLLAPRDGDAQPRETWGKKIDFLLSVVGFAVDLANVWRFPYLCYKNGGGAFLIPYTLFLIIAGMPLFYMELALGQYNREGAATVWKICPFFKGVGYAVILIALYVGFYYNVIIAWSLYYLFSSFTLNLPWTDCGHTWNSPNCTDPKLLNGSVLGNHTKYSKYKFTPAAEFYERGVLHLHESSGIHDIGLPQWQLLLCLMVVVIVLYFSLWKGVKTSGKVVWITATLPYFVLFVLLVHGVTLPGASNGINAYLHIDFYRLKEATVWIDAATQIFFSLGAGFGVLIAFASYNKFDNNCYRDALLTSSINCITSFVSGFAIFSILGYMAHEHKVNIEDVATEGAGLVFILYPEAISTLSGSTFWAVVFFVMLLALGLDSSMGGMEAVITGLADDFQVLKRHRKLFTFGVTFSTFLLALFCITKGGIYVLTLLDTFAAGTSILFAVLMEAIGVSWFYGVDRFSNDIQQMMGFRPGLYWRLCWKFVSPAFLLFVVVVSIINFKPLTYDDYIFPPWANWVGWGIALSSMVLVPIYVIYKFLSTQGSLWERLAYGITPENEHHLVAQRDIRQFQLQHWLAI
T2 sequence (P31645 whole entry): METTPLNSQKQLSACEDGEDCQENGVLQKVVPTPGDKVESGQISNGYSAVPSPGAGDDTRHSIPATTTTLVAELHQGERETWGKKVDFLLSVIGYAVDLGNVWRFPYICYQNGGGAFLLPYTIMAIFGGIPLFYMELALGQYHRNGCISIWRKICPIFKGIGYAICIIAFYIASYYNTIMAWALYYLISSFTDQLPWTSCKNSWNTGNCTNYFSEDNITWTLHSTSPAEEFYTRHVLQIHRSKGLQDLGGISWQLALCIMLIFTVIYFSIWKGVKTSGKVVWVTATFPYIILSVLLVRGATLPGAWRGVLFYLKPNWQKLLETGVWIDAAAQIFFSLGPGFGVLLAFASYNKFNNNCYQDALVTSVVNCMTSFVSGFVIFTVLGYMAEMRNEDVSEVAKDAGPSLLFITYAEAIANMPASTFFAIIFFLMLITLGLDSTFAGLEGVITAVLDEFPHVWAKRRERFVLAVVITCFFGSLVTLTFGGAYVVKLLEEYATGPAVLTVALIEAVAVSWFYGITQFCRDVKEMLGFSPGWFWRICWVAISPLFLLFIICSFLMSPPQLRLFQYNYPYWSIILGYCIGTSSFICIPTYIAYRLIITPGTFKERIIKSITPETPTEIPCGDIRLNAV
Sequence of hERG (KCNH2) (Q12809 whole entry): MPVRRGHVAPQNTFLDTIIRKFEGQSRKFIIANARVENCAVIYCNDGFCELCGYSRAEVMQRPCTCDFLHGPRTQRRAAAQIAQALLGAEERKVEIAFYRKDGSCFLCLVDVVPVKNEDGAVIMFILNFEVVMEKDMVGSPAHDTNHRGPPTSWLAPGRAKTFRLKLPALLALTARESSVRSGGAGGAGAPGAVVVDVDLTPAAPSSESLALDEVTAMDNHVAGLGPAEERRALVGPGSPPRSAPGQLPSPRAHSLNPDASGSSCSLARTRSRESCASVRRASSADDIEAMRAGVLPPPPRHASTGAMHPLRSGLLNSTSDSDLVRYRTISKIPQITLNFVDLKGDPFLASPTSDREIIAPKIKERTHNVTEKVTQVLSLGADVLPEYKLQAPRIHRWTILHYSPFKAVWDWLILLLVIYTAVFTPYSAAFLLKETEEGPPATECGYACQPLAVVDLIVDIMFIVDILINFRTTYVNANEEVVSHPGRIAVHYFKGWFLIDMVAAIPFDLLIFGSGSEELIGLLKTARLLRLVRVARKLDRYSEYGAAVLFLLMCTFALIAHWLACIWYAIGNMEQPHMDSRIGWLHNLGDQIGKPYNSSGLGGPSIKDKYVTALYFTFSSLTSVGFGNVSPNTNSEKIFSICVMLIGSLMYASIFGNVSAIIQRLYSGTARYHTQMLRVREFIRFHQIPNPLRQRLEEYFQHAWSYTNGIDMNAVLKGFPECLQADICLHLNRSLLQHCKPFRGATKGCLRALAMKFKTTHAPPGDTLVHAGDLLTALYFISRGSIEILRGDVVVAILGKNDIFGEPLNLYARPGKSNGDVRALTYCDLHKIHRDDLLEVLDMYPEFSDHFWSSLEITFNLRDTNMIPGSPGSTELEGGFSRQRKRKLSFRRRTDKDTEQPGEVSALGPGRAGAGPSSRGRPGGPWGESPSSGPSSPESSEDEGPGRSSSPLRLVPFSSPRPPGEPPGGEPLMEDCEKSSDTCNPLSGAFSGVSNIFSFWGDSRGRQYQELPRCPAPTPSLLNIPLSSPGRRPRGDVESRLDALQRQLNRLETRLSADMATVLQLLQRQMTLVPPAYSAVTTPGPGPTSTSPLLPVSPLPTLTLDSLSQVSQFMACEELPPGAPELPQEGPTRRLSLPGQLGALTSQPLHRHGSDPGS
Sequence of Sigma non-opioid intracellular receptor 1 (Q99720 whole entry): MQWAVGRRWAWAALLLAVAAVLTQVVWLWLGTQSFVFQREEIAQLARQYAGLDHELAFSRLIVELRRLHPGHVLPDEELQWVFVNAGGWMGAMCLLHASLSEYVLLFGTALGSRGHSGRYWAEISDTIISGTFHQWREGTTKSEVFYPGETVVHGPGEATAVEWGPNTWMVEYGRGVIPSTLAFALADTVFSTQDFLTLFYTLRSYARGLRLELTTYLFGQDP
Sequence of Sigma intracellular receptor 2 (Q5BJF2 whole entry): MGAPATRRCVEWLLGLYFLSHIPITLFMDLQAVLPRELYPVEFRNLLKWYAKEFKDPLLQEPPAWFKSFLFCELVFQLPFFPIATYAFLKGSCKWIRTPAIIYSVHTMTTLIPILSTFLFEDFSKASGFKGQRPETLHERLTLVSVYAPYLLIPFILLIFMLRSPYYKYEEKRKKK

By CLint scaled is commonly meant the capacity of the preparation to metabolise the compound, expressed as a volume cleared per time. A low value points to slow turnover. One may read the solubility as the concentration that dissolves in the medium under given conditions. For orientation: half-life means the time needed for the level to fall by half in the phase considered. The compound `[2H]C([2H])([2H])N1CC[C@@]23CCCC[C@@H]2[C@@H]1Cc1ccc(C(C)(F)F)cc13` registered an intrinsic metabolic clearance (CLint scaled) at 2 h, 10 µM in “in vitro [1]” of 5.39 mL/min/kg. Further, the solubility at 1.5 h, 100 µM in series [2] was determined as 95 µM (≈ 29.3 µg/mL); in [4] it was 67 µM (≈ 20.7 µg/mL). For the same compound, in series [3], the half-life at 10 µM turned out to be 5.38 h.

The Ki is the equilibrium dissociation constant of an inhibitor or competing ligand from its target. High values mean weaker binding, low ones tighter binding. On to `CN1CC[C@]23CCCC[C@@H]2[C@H]1Cc1ccc(O)cc13`, for which the inhibition constant Ki in series [5] was more than 10000 nM; in series [6], 486 nM; in series [7], 118 nM; in series [8] it was more than 340 nM; in series [9], 401 nM.

Consider `[2H]C([2H])([2H])N1CC[C@@]23CCCC[C@@H]2[C@@H]1Cc1ccc(OC(F)F)cc13`, for which the CLint scaled at 2 h, 10 µM in “in vitro [1]” was found to be 13.2 mL/min/kg. In addition, the figures for the solubility at 1.5 h, 100 µM in series [2] and in [4] were 101 µM (≈ 31.4 µg/mL) and 83 µM (≈ 25.8 µg/mL), respectively. Also, the half-life at 10 µM in series [3] turned out to be 1.58 h.

By Papp B→A is commonly meant how fast a substance crosses the layer from the basolateral side. What is called CL/F is clearance divided by bioavailability, as obtained after extravascular dosing. For orientation: efflux ratio means a quotient of directional permeabilities that is used to spot active efflux. What is called IC50 is the concentration needed to halve the response being measured. Broadly, the inhibition is the relative decrease from the control value, in per cent. As usually defined, the Cmax is the maximum level reached in the sampled fluid or tissue. As usually defined, the Papp A→B is how fast a substance crosses the layer from the apical side. Higher therefore signals fast passage. One may read the AUC as concentration integrated over time. Lower therefore signals low exposure. In the case of `CN1CC[C@@]23CCCC[C@@H]2[C@@H]1Cc1ccc(OC(F)(F)F)cc13`, in the series “in vitro [10]”, the apparent permeability from basolateral to apical (Papp B→A) worked out at 1.12 ×10⁻⁶ cm/s. Also, the apparent clearance CL/F in [11] is 318 mL/min/kg. Besides, the efflux ratio in series [12] amounted to 1.13. For the same compound, the IC50 was more than 10000 nM in series [13] and 31 nM in series [21]. This compound also showed an inhibition at 0.25 h, 10 µM against hERG (KCNH2) of 6.1%. Further, the Vd in series [14] was found to be 77 L/kg. Further, in “in vitro [1]”, the intrinsic metabolic clearance (CLint scaled) at 2 h, 10 µM amounted to 5.66 mL/min/kg. The Ki in series [5] is 833 nM; in [6] it was more than 10000 nM; in series [7], 757 nM; in series [8], more than 10000 nM; in [9], 48 nM. The solubility at 1.5 h, 100 µM in series [2] was more than 100 µM; in [4], 60 µM (≈ 19.5 µg/mL). The Cmax is 12 ng/mL in [15] and 756 ng/mL in series [16]. Also, the half-life in series [17] was 3.18 h; in [23], 2.8 h. In addition, in [18], the Kp uu at 20 µM is 3.3. For the same compound, the half-life at 10 µM in series [3] is 3.67 h. In “in vitro [19]”, this compound returned an apparent permeability from apical to basolateral (Papp A→B) of 0.989 ×10⁻⁶ cm/s. The values for the area under the curve (AUC) at 24 h in series [20] and in [22] were 9460 ng·h/mL and 131 ng·h/mL, respectively.

In [11], `[2H]C([2H])([2H])N1CC[C@@]23CCCC[C@@H]2[C@@H]1Cc1ccc(OC(F)(F)F)cc13` came in with a CL/F of 202 mL/min/kg. The compound further gave a Vd in series [14] of 43 L/kg. In “in vitro [1]”, the intrinsic metabolic clearance (CLint scaled) at 2 h, 10 µM turned out to be 7.81 mL/min/kg. Moreover, the solubility at 1.5 h, 100 µM was determined as 100 µM (≈ 32.8 µg/mL) in series [2] and 86 µM (≈ 28.2 µg/mL) in series [4]. For the same compound, the maximum concentration (Cmax) in series [15] is 32 ng/mL; in series [16], 725 ng/mL. Also, the half-life in [17] worked out at 3.03 h; in series [23], 2.45 h. Also, the Kp uu at 20 µM in [18] turned out to be 1.2. In addition, the half-life at 10 µM in series [3] stood at 2.67 h. The “Cp(f)” value in series [24] amounted to 40.2%; in series [25], 2.1%. Also, the values for the AUC at 24 h in series [20] and in series [22] were 5810 ng·h/mL and 205 ng·h/mL, respectively.

Turning to `CN1CC[C@@]23CCCC[C@@H]2[C@@H]1Cc1ccc(C(F)F)cc13`, the Papp B→A in “in vitro [10]” is 1.1 ×10⁻⁶ cm/s. For the same compound, in series [11], the apparent clearance CL/F amounted to 288 mL/min/kg. Further, the efflux ratio in series [12] was 0.81. The half-inhibitory concentration (IC50) came out at 944 nM in series [13] and 24 nM in series [21]. The same compound showed an inhibition at 0.25 h, 10 µM on hERG (KCNH2) of 12%. The same compound registered a Vd in series [14] of 85 L/kg. The intrinsic metabolic clearance (CLint scaled) at 2 h, 10 µM in “in vitro [1]” was 5.13 mL/min/kg. The Ki in series [5] was 353 nM; in series [6], more than 10000 nM; in series [7], 145 nM; in series [8], 35 nM; in series [9] it was 51 nM. The solubility at 1.5 h, 100 µM in [2] and in series [4] was more than 100 µM each time. Also, the Cmax is 27 ng/mL in series [15] and 674 ng/mL in series [16]. For the same compound, the half-life in series [17] amounted to 2.57 h; in series [23], 3.33 h. Also, in series [18], the Kp uu at 20 µM is 7.8. Also, the half-life at 10 µM in series [3] was found to be 4.05 h. In “in vitro [19]”, this compound yielded an apparent permeability from apical to basolateral (Papp A→B) of 1.35 ×10⁻⁶ cm/s. Also, the area under the curve (AUC) at 24 h in series [20] amounted to 4930 ng·h/mL; in series [22] it was 144 ng·h/mL.

In “in vitro [10]”, `CN1CC[C@@]23CCCC[C@@H]2[C@@H]1Cc1ccc(OC(F)F)cc13` came in with a Papp B→A of 0.979 ×10⁻⁶ cm/s. Also, the efflux ratio in series [12] turned out to be 0.77. Also, the IC50 is more than 10000 nM in series [13] and 55 nM in series [21]. The inhibition at 0.25 h, 10 µM on hERG (KCNH2) worked out at 34.9%. The compound further displayed a CLint scaled at 2 h, 10 µM in the series “in vitro [1]” of 4.94 mL/min/kg. Further, the Ki in series [5] was 1280 nM; in [6] it was more than 10000 nM; in [7] it was 568 nM; in [8], more than 10000 nM; in [9], 186 nM. Further, the values for the solubility at 1.5 h, 100 µM in [2] and in series [4] were more than 100 µM and 76 µM (≈ 23.4 µg/mL), respectively. Moreover, the half-life at 10 µM in series [3] is 4.22 h. Further, in “in vitro [19]”, the Papp A→B stood at 1.28 ×10⁻⁶ cm/s.
